Measured values from patent publication US20250273312A1, “SYSTEM AND METHOD FOR IMMUNOSUPPRESSANT DOSAGE” (THE REGENTS OF THE UNIVERSITY OF CALIFORNIA, priority 2021, published 2025).

Tests used:
[1] = human, in vivo
Text: (§1) The inclusion criteria for the study was (1) the subject was undergoing primary or secondary liver or simultaneous liver and kidney transplantation; (2) the subject or a surrogate was able to provide informed consent; and (3) the subject was at least 18 years of age. […] Sixty two (62) subjects were accepted into the trial.
Each of the 62 selected subjects were randomized, with half (31) assigned to a control group and the other half (31) assigned to a phenotypic personalized medicine (PPM) group. The subjects were blinded to group assignments; the clinical team was not blinded. […] The SOC dosing utilized a combination of dose titration and a subjective determination by a clinician. The subjective determination relied on patient weight, age, muscle mass, race/ethnicity, frailty, diet, concomitant medication, and other factors to select an initial dose for the next twenty-four hours. The patient's response to this dose is then taken into consideration for determining the next day's dose recommendation. This determination was repeated each day until the patient was able to be released from the hospital.
After the third day, the Control group continued with the standard-of-care procedure while the PPM group subjects were given dosages calculated by the PPM prediction model, shown in the Function below. […]

[2] = Same clinical trial: clinical outcomes (length of stay, AST normalization, neurotoxicity); format: in vivo, human
Text: as §1
Each of the 62 selected subjects were randomized, with half (31) assigned to a control group and the other half (31) assigned to a phenotypic personalized medicine (PPM) group. The subjects were blinded to group assignments; the clinical team was not blinded. The patients in the PPM group were given tacrolimus dosages based on the present dosage calculation system and patients of the Control group were given tacrolimus dosages based on standard-of-care (SOC) dosing. The SOC dosing utilized a combination of dose titration and a subjective determination by a clinician. The subjective determination relied on patient weight, age, muscle mass, race/ethnicity, frailty, diet, concomitant medication, and other factors to select an initial dose for the next twenty-four hours. The patient's response to this dose is then taken into consideration for determining the next day's dose recommendation. This determination was repeated each day until the patient was able to be released from the hospital.
Tacrolimus dosage was discontinued for one patient in each of the PPM group and the Control group. […] As this would affect dosing accuracy and the study outcomes, this patient was excluded from analysis. One patient assigned to the Control group refused multiple tacrolimus doses in the post-operative period and was therefore excluded from analysis. The remaining 56 (29 Control group and 27 PPM group) patients completed the study and were discharged from the hospital after transplantation.
Following liver transplantation, all study patients were started on standard-of-care medication regimen: a three-drug combination of tacrolimus, a corticosteroid, and mycophenolate. Blood tacrolimus trough levels were measured daily in the morning until patient discharge. […] After the third day, the Control group continued with the standard-of-care procedure while the PPM group subjects were given dosages calculated by the PPM prediction model, shown in the Function below.
The primary outcome measure was percent days with large (>2 ng/ml) deviations from target range. Secondary outcomes included percent days outside-of-target range, ratio of area-under-the-curve outside-of-target-range to total days, graft rejection, graft failure, death, infections, length of stay, nephrotoxicity episodes, or neurotoxicity episodes. Comparisons between the two groups were performed using either the two-tailed Welch's t-test or Student's t-test. For nonparametric (non-normal) distributions, a two-tailed Levene's test was used to compare variances and a two-tailed Wilcoxon Rank Sum test was used to compare medians. Logistic regression was used to dichotomize the length of stay after transplant and the percent days out of target range for comparison. Statistical analyses were performed on JMP Pro 16.1.0.

[3] = Average deviation between target (predicted) and measured tacrolimus serum level for dosing Functions 0, 1, 2; parameters: species or system human; details: unit assumed
Text: Additionally, data from the clinical trial was utilized to determine the average deviations between a target (i.e., predicted) serum level and an actual (i.e., measured) serum level for the two PPM patients.
Where Function 0 is ST(DT, t)=x0(t)+x1(t)DT+x11(t)DT^2; Function 1 is [(D/S)T](N+1) day=[(D/S)T]N day; and Function 2 is [(D/S)T]next day=x0(t)+x1(t)[AST×(D/S)T]today+z11(t)[AST×(D/S)T] today. […] By incorporating the AST level the current system and methods can provide further improvement in achieving a target serum levels

C=CC[C@@H]1/C=C(\C)C[C@H](C)C[C@H](OC)[C@H]2O[C@@](O)(C(=O)C(=O)N3CCCC[C@H]3C(=O)O[C@H](/C(C)=C/[C@@H]3CC[C@@H](O)[C@H](OC)C3)[C@H](C)[C@@H](O)CC1=O)[C@H](C)C[C@@H]2OC [tacrolimus]
decrease in the percentage of days with a large deviation from the target trough drug level [1]: 37% | reduction of the mean AUC outside of target range [1]: 30% | days after liver transplant until release from hospital ([2]; Control Patient, conventional titration): 19 days | average hospital stay ([2]; Control group): 15.87 days | day by which 90% of the patients were discharged ([2]; Control group): 25 days | share of group with post-transplant length of stay two weeks or more ([2]; Control group): 65.5% | median days to normalize AST levels (DAST) ([2]; Control group (Q1-Q3 6.25-11.75)): 8.5 days | median length-of-stay (LOS) ([2]; Control group (Q1-Q3 10.5-20.5)): 15 days | average hospital stay ([2]; Control group, two patients with the longest stay removed): 14.36 days | days after liver transplant until release from hospital ([2]; First PPM Patient): 12 days | average hospital stay ([2]; PPM group): 10.42 days | day by which 90% of the patients were discharged ([2]; PPM group): 15 days | share of group with post-transplant length of stay two weeks or more ([2]; PPM group (5/27)): 18.5% | median days to normalize AST levels (DAST) ([2]; PPM group (Q1-Q3 4-8)): 6 days | median length-of-stay (LOS) ([2]; PPM group (Q1-Q3 8-12)): 10 days | reduction in the post-transplant length of stay ([2]; PPM group versus Control group): more than 30% | average hospital stay ([2]; PPM group, two patients with the longest stay removed): 8 days | day of release from hospital ([2]; Second PPM Patient): 11 days | neurotoxicity leading to discontinuation of tacrolimus ([2]; one patient in each of the PPM group and the Control group, evidenced by brain imaging): neurotoxicity within the first week after transplant that was deemed not dose related | Average Deviation from Target Serum Level ([3]; Function 0, first row of Table 5 (one of the two PPM patients)): 2.9 ng/mL | Average Deviation from Target Serum Level ([3]; Function 0, second row of Table 5 (one of the two PPM patients)): 1.6 ng/mL | Average Deviation from Target Serum Level ([3]; Function 1, first row of Table 5): 2 ng/mL | Average Deviation from Target Serum Level ([3]; Function 1, second row of Table 5): 1.2 ng/mL | Average Deviation from Target Serum Level ([3]; Function 2, first row of Table 5): 1.4 ng/mL | Average Deviation from Target Serum Level ([3]; Function 2, second row of Table 5): 0.6 ng/mL
